Assay results reported in US20250197398A1, “Varenicline Related Compounds and Methods for Treating Diseases and Conditions Including Tobacco Use Disorder” (SpaceRX LLC, priority 2022, published 2025).

Columns and labels:
Assay type in all cases: in vivo
[1] = test system: anxiety-like behavior in mice; assay: Open field assay after oral compound administration; conditions: varenicline 1.5 and 4.5 mpk, FIG. 5
Description: FIG. 5 is a bar graph illustrating open field responses to oral administration of compounds.
Varenicline also influenced the mobility and anxiety-like behavior in mice.

striatal dopamine levels = assay: Striatal dopamine response to oral compound administration (GRAB-DA sensor, fiber photometry); conditions: awake mice; mean for 30 minutes following compound administration; varenicline 1.5 and 4.5 mpk; FIG. 3A-3B
Description: (§1) FIG. 1A-FIG. 1B are a schematic and a response curve illustrating the monitoring of striatal dopamine in the awake behaving animal in response to varenicline. […] Scale bar, 200 μm.
FIG. 3A-FIG. 3B are a bar graph and a response curve illustrating the striatal dopamine responses to oral compound administration.
(§2) The ability of varenicline to decrease nicotine use comes from the ability to block nicotine-induced dopamine signaling in the striatum. Real-time sensing of dopamine levels in awake and behaving mice was measured using a fluorescent dopamine sensor (GRAB-DA) and fluorometric measurements of that sensor (Fiber Photometry).

[2] = test system: nicotine-induced dopamine signaling in the striatum; assay: Nicotine-evoked striatal dopamine release after compound pretreatment (GRAB-DA sensor, fiber photometry); conditions: awake mice pretreated with compound; IP nicotine 2 hours later; mean dopamine response for 30 minutes following nicotine; varenicline 1.5 and 4.5 mpk; FIG. 2A-2C
Description: as §1
FIG. 2A-FIG. 2C are bar graphs and a response curve illustrating the striatal dopamine responses to nicotine. […] FIGS. 2B-2C show exemplary traces and quantification of striatal dopamine responses preceding and following an IP administration of nicotine. Mice were pretreated either with Varenicline (light grey) or Varenicline-Encarbil (dark grey).
as §2

Row | Compound | anxiety-like behavior: time spent in center of open field [1] | striatal dopamine response following oral administration of compound (striatal dopamine levels) | efficacy at reducing the nicotine-evoked release of dopamine [2]
1 | N[C@@H](Cc1ccc(OC(=O)N2CC3CC(C2)c2cc4nccnc4cc23)cc1)C(=O)O [Varenicline-CBT] | not observed | do not lead to dopamine release | 
2 | NCC(=O)N1CC2CC(C1)c1cc3nccnc3cc12 [Varenicline Glycinamide] | not observed | do not lead to dopamine release | 
3 | CC(OC(=O)C(C)C)OC(=O)N1CC2CC(C1)c1cc3nccnc3cc12 (stereo not drawn) [Varenicline-Encarbil] |  | mimic the effects of varenicline | better efficacy when compared directly to varenicline
4 | O=C(N[C@@H](CO)C(=O)O)c1ccc[n+](COC(=O)N2CC3CC(C2)c2cc4nccnc4cc23)c1 [Servarenicline Chloride] | not observed | do not lead to dopamine release | better efficacy when compared directly to varenicline
5 | c1cnc2cc3c(cc2n1)[C@@H]1CNC[C@H]3C1 [varenicline] | dramatically reduced time in the middle | increased striatal dopamine levels after administration | regardless the dose of varenicline, the response to nicotine 2 hours later is the same
